In PMC7056826, “Crystal Structure of the Chloroplastic Glutamine Phosphoribosylpyrophosphate Amidotransferase GPRAT2 From Arabidopsis thaliana” (Frontiers in Plant Science, 2020):
Where a chain is given by its changes, count along the chain named.

B1: Arabidopsis thaliana chloroplastic glutamine phosphoribosylpyrophosphate amidotransferase 2, AtGPRAT2^75-561 (enzyme, UniProt Q9STG9 75-561, looked up)
chain: CGVVGIYGDSEASRLCYLALHALQHRGQEGAGIVTVSKDKVLQTITGVGLVSEVFSESKLDQLPGDIAIGHVRYSTAGSSMLKNVQPFVAGYRFGSVGVAHNGNLVNYTKLRADLEENGSIFNTSSDTEVVLHLIAISKARPFFMRIVDACEKLQGAYSMVFVTEDKLVAVRDPHGFRPLVMGRRSNGAVVFASETCALDLIEATYEREVYPGEVLVVDKDGVKCQCLMPHPEPKQCIFEHIYFSLPNSIVFGRSVYESRHVFGEILATESPVDCDVVIAVPDSGVVAALGYAAKAGVAFQQGLIRSHYVGRTFIEPSQKIRDFGVKLKLSPVRGVLEGKRVVVVDDSIVRGTTSSKIVRLLREAGAKEVHMRIASPPIIASCYYGVDTPSSNELISNRMSVDEIRDYIGCDSLAFLSFETLKKHLGEDSRSFCYACFTGDYPVKPTEDKVKRGGDFIDDGLVGGIHNIEGGWVR
notes: AtGPRAT2 (At4g34740), Arabidopsis thaliana, residues 75-561, without the predicted chloroplast transit peptide; Each protomer carries a 4Fe-4S cofactor; also called GPRATase

Tests used:
[1] = target: T1, AtGPRAT2 (Arabidopsis thaliana, UniProt Q9STG9, Y329A); test: isothermal titration calorimetry, single site model; assay type: binding
T1 construct: gene ASE2; residues 75-561 without predicted chloroplast transit peptide, C-terminal His tag (pET22b), E. coli BL21; propeptide autocatalytically removed, first visible residue Cys87 (87-546 visible); 4Fe-4S cluster; homo-tetramer in crystal
T1 sequence (Q9STG9 87-561 Y329A): B1 chain with Y243A

[2] = target: T2, AtGPRAT2 (Arabidopsis thaliana, UniProt Q9STG9); test: coupled glutamate dehydrogenase assay, NADH at […] nm, mixed inhibition model; assay type: biochemical
T2 construct: gene ASE2; residues 75-561 without predicted chloroplast transit peptide, C-terminal His tag (pET22b), E. coli BL21; propeptide autocatalytically removed, first visible residue Cys87 (87-546 visible); 4Fe-4S cluster; homo-tetramer in crystal
T2 sequence (Q9STG9 87-561): B1 chain

[3] = target: T2, AtGPRAT2; test: isothermal titration calorimetry, single site model; assay type: binding
Text: isothermal titration calorimetry, single site model on AtGPRAT2 | isothermal titration calorimetry (ITC) assay with wildtype, R264K and Y329A mutants of AtGPRAT2

[4] = target: T3, AtGPRAT2 (Arabidopsis thaliana, UniProt Q9STG9, R264K); test: as above; assay type: binding; conditions: 20 mM HEPES pH 7.5, 200 mM NaCl, 25 °C; stated gain
T3 construct: gene ASE2; residues 75-561 without predicted chloroplast transit peptide, C-terminal His tag (pET22b), E. coli BL21; propeptide autocatalytically removed, first visible residue Cys87 (87-546 visible); 4Fe-4S cluster; homo-tetramer in crystal
T3 sequence (Q9STG9 87-561 R264K): B1 chain with R178K

[5] = substrate: O=P(O)(O)OC[C@H]1O[C@H](OP(=O)(O)OP(=O)(O)O)[C@H](O)[C@@H]1O; test: purified protein; assay type: biochemical, Arabidopsis thaliana; conditions: 10 mM Gln, 37.5 mM NAD+, 110 mM potassium phosphate pH 8.0, no inhibitor
[6] = target: the molecule itself; test: crystal structure; sitting-drop vapor diffusion at 291 K; 0.1 M sodium citrate tribasic pH 5.6, 1.5 M ammonium phosphate monobasic, 0.1 M citric acid pH 3.4; space group P3121, two molecules in the asymmetric unit; tetramer assigned with the PISA server

Molecule	Kd [1] [nM]	Ki [2] [nM]	Kd [3] [nM]	binding abolished [4]	Km [5] [µM]	stoichiometry N [6]
CC(C)n1nc(CC(=O)O)nc1-c1ccc(Cl)cc1 [DAS734, [5-(4-chlorophenyl)-1-isopropyl-1H-[1,2,4]triazol-3-yl]-acetic acid]	1750 ± 38.4	5290	165 ± 15.8	the R264K mutation abolished the binding of DAS734 to AtGPRAT2	–	–
B1	–	–	–	–	350	4
